Here are results for 20 compounds from US11078170B2 (Assembly Biosciences, Inc., priority 2017, dated 2021).

Some results are limits rather than exact numbers.

The test system of the assay is HBV viral production from HepAD38 cells. Put plainly: Activity of test compounds on viral production from HepAD38 cells (viral load by qPCR of HBV core sequence in supernatant). Format: cell-based. As to conditions: Hepatitis B virus, 120 h, 5 days incubation, HBV DNA in supernatant by qPCR, top concentration 10 μM, read-out: Viral Load EC50 Activity range. In outline: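 HepAD38 cells, 50,000/well in tetracycline-free 2% FBS medium, treated 5 days at 37° C. with compound from 10 μM top concentration. HBV DNA in supernatant quantified by TaqMan qPCR of core sequence against DNA standards, relative to DMSO wells; CellTiter-Glo viability read in parallel. EC50/CC50 from four-parameter logistic fit.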
Take `CN1C(C(=O)Nc2ccc(F)c(Cl)c2)CC(c2cc(Br)c(Cl)s2)NS1(=O)=O` (stereo not drawn) [HBV-CSU-330, Cis-5-(4-bromo-5-chlorothiophen-2-yl)-N-(3-chloro-4-fluorophenyl)-2-methyl-1,2,6-thiadiazinane-3-carboxamide 1,1-dioxide]: the half-maximal effective concentration (EC50) is less than 1 µM.
Take `CN1[C@@H](C(=O)Nc2ccc(F)c(Cl)c2)C[C@@H](c2ccc(-c3cnn(C)c3)s2)NS1(=O)=O` [HBV-CSU-161-ISO-II, Cis-N-(3-chloro-4-fluorophenyl)-2-methyl-5-(5-(1-methyl-1H-pyrazol-4-yl)thiophen-2-yl)-1,2,6-thiadiazinane-3-carboxamide 1,1-dioxide]: the EC50 was in the range of 1 to 5 µM.
On to `CN1[C@@H](C(=O)Nc2ccc(F)c(Cl)c2)C[C@@H](c2ccc(C(=O)O)cc2)NS1(=O)=O` [HBV-CSU-218-ISO-II, Cis-4-(5-((3-Chloro-4-fluorophenyl)carbamoyl)-6-methyl-1,1-dioxido-1,2,6-thiadiazinan-3-yl)benzoic acid], for which the EC50 lay within 1 to 5 µM.
For the compound `CN1[C@H](C(=O)Nc2ccc(F)c(Cl)c2)C[C@H](c2ncc(-c3cccnc3)s2)NS1(=O)=O` [HBV-CSU-175-ISO-I, Cis-N-(3-Chloro-4-fluorophenyl)-2-methyl-5-(5-(pyridin-3-yl)thiazol-2-yl)-1,2,6-thiadiazinane-3-carboxamide 1,1-dioxide], the EC50 is less than 1 µM.
Next, `COc1ccc(-c2cnc(C3CC(C(=O)Nc4ccc(F)c(Cl)c4)N(C)S(=O)(=O)N3)s2)cc1` (racemic) [HBV-CSU-250, Cis-N-(3-Chloro-4-fluorophenyl)-5-(5-(4-methoxyphenyl)thiazol-2-yl)-2-methyl-1,2,6-thiadiazinane-3-carboxamide 1,1-dioxide]: less than 1 µM.
For `COc1ccccc1C1CC(C(=O)Nc2ccc(F)c(Cl)c2)N(C)S(=O)(=O)N1` (centres unmarked) [HBV-CSU-215], the 50% effective concentration (EC50) lay in the range of 1 to 5 µM.
Take `[2H]C1[C@]([2H])(c2ncc(-c3cn(C)cn3)s2)NS(=O)(=O)N(C([2H])([2H])[2H])[C@]1([2H])C(=O)Nc1ccc(F)c(Cl)c1` (stereo in doubt) [HBV-CSU-340-ISO-I, Cis-N-(3-Chloro-4-fluorophenyl)-2-(methyl-d3)-5-(5-(1-methyl-1H-imidazol-4-yl)thiazol-2-yl)-1,2,6-thiadiazinane-3,4,5-d3-3-carboxamide 1,1-dioxide]: the concentration giving a half-maximal response (EC50) is less than 1 µM.
Turning to `CN1C(C(=O)Nc2ccc(F)c(Cl)c2)CC(c2ccc(-c3cccs3)s2)NS1(=O)=O` (stereo not drawn) [HBV-CSU-162, Cis-N-5-([2,2′-bithiophen]-5-yl)-N-(3-chloro-4-fluorophenyl)-2-methyl-1,2,6-thiadiazinane-3-carboxamide 1,1-dioxide], the concentration for a half-maximal effect (EC50) is less than 1 µM.
Next, `CN1[C@H](C(=O)Nc2ccc(F)c(Cl)c2)C[C@H](c2cc(-c3cnn(CCO)c3)cs2)NS1(=O)=O` [HBV-CSU-296-ISO-I, Cis-N-(3-chloro-4-fluorophenyl)-5-(4-(1-(2-hydroxyethyl)-1H-pyrazol-4-yl)thiophen-2-yl)-2-methyl-1,2,6-thiadiazinane-3-carboxamide 1,1-dioxide]: less than 1 µM; `[2H]C([2H])([2H])N1[C@@H](C(=O)Nc2ccc(F)c(Cl)c2)C[C@@H](c2ccc(-c3cn(C([2H])([2H])[2H])cn3)s2)NS1(=O)=O` (stereo in doubt) [HBV-CSU-374-ISO-II, Cis-N-(3-Chloro-4-fluorophenyl)-2-(methyl-d3)-5-(5-(1-(methyl-d3)-1H-imidazol-4-yl)thiophen-2-yl)-1,2,6-thiadiazinane-3-carboxamide 1,1-dioxide]: less than 1 µM; `[2H]C1[C@]([2H])(c2ncc(-c3cn(C([2H])([2H])[2H])cn3)s2)NS(=O)(=O)N(C([2H])([2H])[2H])[C@]1([2H])C(=O)Nc1ccc(F)c(Cl)c1` (stereo in doubt) [HBV-CSU-339-ISO-I, Cis-N-(3-Chloro-4-fluorophenyl)-2-(methyl-d3)-5-(5-(1-(methyl-d3)-1H-imidazol-4-yl)thiazol-2-yl)-1,2,6-thiadiazinane-3,4,5-d3-3-carboxamide 1,1-dioxide]: less than 1 µM.
Next, `CN1[C@@H](C(=O)Nc2ccc(F)c(Cl)c2)C[C@@H](c2ccc(-c3ccccc3)s2)NS1(=O)=O` (relative stereo) [HBV-CSU-116-ISO-II, Cis-N-(3-chloro-4-fluorophenyl)-2-methyl-5-(5-phenylthiophen-2-yl)-1,2,6-thiadiazinane-3-carboxamide 1,1-dioxide]: 1 to 5 µM; `N#CCN1C(C(=O)Nc2ccc(F)c(Cl)c2)CC(c2nccs2)NS1(=O)=O` (racemic) [HBV-CSU-093, Cis-N-(3-Chloro-4-fluorophenyl)-2-(cyanomethyl)-5-(thiazol-2-yl)-1,2,6-thiadiazinane-3-carboxamide 1,1-dioxide]: greater than 5 µM; `CN1C(C(=O)Nc2ccc(F)c(Cl)c2)CC(c2ccc(Cc3ccccc3)s2)NS1(=O)=O` (stereo not drawn) [HBV-CSU-117, Cis-(5-benzylthiophen-2-yl)-N-(3-chloro-4-fluorophenyl)-2-methyl-1,2,6-thiadiazinane-3-carboxamide 1,1-dioxide]: less than 1 µM.
Consider `CN1[C@H](C(=O)Nc2ccc(F)c(Cl)c2)C[C@H](c2cc(-c3cncn3C)cs2)NS1(=O)=O` [HBV-CSU-285-ISO-I, Cis-N-(3-Chloro-4-fluorophenyl)-2-methyl-5-(4-(1-methyl-1H-imidazol-5-yl)thiophen-2-yl)-1,2,6-thiadiazinane-3-carboxamide 1,1-dioxide], for which the concentration for a half-maximal effect (EC50) was less than 1 µM.
Next, `[2H]C1[C@]([2H])(c2ccc(-c3cnn(C([2H])([2H])[2H])c3)s2)NS(=O)(=O)N(C([2H])([2H])[2H])[C@]1([2H])C(=O)Nc1ccc(F)c(Cl)c1` (stereo in doubt) [HBV-CSU-379-ISO-I, Cis-N-(3-Chloro-4-fluorophenyl)-2-(methyl-d3)-5-(5-(1-(methyl-d3)-1H-pyrazol-4-yl)thiophen-2-yl)-1,2,6-thiadiazinane-3,4,5-d3-3-carboxamide 1,1-dioxide]: less than 1 µM.
In the case of `C#CCCN1[C@H](C(=O)Nc2ccc(F)c(Cl)c2)C[C@H](c2nccs2)NS1(=O)=O` [HBV-CSU-090-ISO-I, Cis-2-(But-3-yn-1-yl)-N-(3-chloro-4-fluorophenyl)-5-(thiazol-2-yl)-1,2,6-thiadiazinane-3-carboxamide 1,1-dioxide], the EC50 is less than 1 µM.
With `CN1C(C(=O)Nc2ccc(F)c(Cl)c2)CC(c2ccc(Br)cc2)NS1(=O)=O` (stereo not drawn) [HBV-CSU-202, Cis-5-(4-Bromophenyl)-N-(3-chloro-4-fluorophenyl)-2-methyl-1,2,6-thiadiazinane-3-carboxamide 1,1-dioxide], the EC50 is less than 1 µM.
As for `CN(C(=O)C1CC(c2cccs2)NS(=O)(=O)N1C)c1ccc(F)c(Cl)c1` (stereo not drawn) [HBV-CSU-015, Cis-N-(3-Chloro-4-fluorophenyl)-N-2-dimethyl-5-(thiophen-2-yl)-1,2,6-thiadiazinane-3-carboxamide 1,1-dioxide], the EC50 fell in the range of 1 to 5 µM.
Turning to `CN1C(C(=O)Nc2ccc(F)c(Cl)c2)CC(c2ncc(Br)s2)NS1(=O)=O` (racemic) [HBV-CSU-122, Cis-5-(5-bromothiazol-2-yl)-N-(3-chloro-4-fluorophenyl)-2-methyl-1,2,6-thiadiazinane-3-carboxamide 1,1-dioxide], the EC50 was less than 1 µM.
